Experimental data as given in patent US20170166592A1, “AZA-BENZIMIDAZOLE INHIBITORS OF PAD4” (Padlock Therapeutics, Inc., priority 2015, published 2017).
Read-outs that look alike come from different tables or passages of the source.

What was measured:
[1] = target: hPAD4 (Homo sapiens, UniProt Q9UM07); experiment: PAD4 inhibition assay, RapidFire mass spectrometry (hPAD4 RFMS); format: biochemical
Protocol: Compounds of the present invention were assayed as inhibitors of PAD4 using the assay protocol described below.
Compounds were solubilised in 100% DMSO to achieve 100 mM final compound concentration. Compound stock solutions were stored at RT. A series of dilutions were prepared in DMSO and mixed 8 times with 20 μL, mixing volume. Final assay conditions were as follows:
Assay buffer (as aforementioned): 100 mM Tris-HCl (pH 7.6), 2 mM DTT, 1 mM CaCl2
Final concentrations: • 100 nM hPAD4 enzyme • 50 μM (8-fold sub-Km) substrate peptide • 0.5% DMSO
Total incubation time: 65 mins at 37° C.
Stop solution: 40 μl 5% TCA in ACN
0.25 μL of compound solution was added to 10 μL of 200 nM PAD4 in assay buffer (100 mM Tris-HCl pH 7.6, 2 mM DTT). After 5 mins, 10 μL of 100 μM of substrate in buffer (100 mM Tris-HCl pH 7.6, 2 mM DTT, 2 mM CaCl2) was added and the reaction incubated for 60 mins at 37 ° C. The enzymatic reaction was quenched by addition of 40 μl of 5% TCA in ACN (1.7% TCA final concentration) stop solution. Arginine containing substrate and citrulline containing product (+1 Da mass shift) were subjected to solid phase extraction on Agilent RapidFire (RF) 300 system and detected on a coupled, triple quadrupole Agilent 6460 QQQ mass spectrometry (MS) device under application of multiple reaction monitoring (MRM) for quantitation.

[2] = target: mPAD4 (Mus musculus, UniProt Q9Z183); experiment: PAD4 inhibition assay, RapidFire mass spectrometry (mPAD4 RFMS); format: biochemical
[3] = 100 nM hPAD4 enzyme, 50 μM substrate peptide, 65 mins at 37° C., read-out: hPAD4 RFMS IC50
[4] = pIC50=-log(IC50), read-out: hPAD4 RFMS pIC50 (converted)
[5] = pIC50=-log(IC50), read-out: mPAD4 RFMS pIC50 (converted)

hPAD4, sequence (Q9UM07 whole entry): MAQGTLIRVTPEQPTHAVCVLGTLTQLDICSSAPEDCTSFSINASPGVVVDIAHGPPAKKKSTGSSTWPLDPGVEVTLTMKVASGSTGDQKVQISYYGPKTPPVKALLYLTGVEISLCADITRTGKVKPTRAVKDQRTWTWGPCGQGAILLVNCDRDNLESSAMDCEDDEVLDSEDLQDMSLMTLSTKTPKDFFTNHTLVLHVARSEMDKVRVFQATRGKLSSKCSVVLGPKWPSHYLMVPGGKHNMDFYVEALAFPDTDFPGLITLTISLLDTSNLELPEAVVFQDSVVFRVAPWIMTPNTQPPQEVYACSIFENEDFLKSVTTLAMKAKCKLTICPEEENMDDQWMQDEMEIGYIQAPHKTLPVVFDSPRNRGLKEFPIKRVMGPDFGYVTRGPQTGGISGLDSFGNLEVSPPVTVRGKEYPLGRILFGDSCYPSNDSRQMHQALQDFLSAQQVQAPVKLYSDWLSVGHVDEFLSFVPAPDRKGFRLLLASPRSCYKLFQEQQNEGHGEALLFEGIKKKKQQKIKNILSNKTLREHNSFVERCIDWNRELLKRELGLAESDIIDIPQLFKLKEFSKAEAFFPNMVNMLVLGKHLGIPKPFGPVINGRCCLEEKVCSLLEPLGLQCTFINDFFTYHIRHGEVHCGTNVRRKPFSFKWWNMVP
mPAD4, sequence (Q9Z183 whole entry): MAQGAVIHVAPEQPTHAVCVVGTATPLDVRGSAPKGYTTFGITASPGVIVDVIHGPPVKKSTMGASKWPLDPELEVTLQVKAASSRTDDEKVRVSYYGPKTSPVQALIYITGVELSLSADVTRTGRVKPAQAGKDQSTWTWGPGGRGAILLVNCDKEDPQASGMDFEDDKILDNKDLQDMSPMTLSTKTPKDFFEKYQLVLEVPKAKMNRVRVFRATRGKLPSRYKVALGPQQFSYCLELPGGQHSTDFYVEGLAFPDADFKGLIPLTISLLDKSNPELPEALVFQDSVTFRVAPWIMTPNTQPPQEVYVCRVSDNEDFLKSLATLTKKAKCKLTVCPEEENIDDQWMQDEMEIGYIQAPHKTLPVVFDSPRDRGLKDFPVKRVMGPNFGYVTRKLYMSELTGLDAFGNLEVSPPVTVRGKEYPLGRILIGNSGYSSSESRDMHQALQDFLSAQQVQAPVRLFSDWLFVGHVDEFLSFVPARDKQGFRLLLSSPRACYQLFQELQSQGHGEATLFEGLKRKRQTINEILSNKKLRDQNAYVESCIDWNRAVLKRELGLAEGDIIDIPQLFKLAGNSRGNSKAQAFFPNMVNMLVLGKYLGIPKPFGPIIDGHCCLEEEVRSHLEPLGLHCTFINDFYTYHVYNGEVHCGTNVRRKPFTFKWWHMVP

Cn1c(-c2cc3cccnc3n2CC2CC2)nc2cc(C(=O)N3CC[C@H]4CCN[C@H]4C3)cnc21 [Compound I-25]
IC50 [1, 3]: ≥ 10000 nM | IC50 [1, 4]: 10000 to 100000 nM

Cn1c(-c2cc3cccnc3n2CC2CC2)nc2cc(C(=O)N3CC[C@@H]4CCN[C@@H]4C3)cnc21 [Compound I-26]
IC50 [1, 3]: 1000 to 5000 nM | IC50 [1, 4]: 1000 to 10000 nM | IC50 [2, 5]: 1000 to 10000 nM | IC50 ([2]; read-out: mPAD4 RFMS IC50): 5000 to 10000 nM

Cn1c(-c2cc3cc(F)c(F)cc3n2CC2CC2)nc2cc(C(=O)N3CCC[C@@H](N)C3)cnc21 [Compound I-30]
IC50 [1, 3]: 1000 to 5000 nM | IC50 [1, 4]: 1000 to 10000 nM | IC50 [2, 5]: ≤ 1000 nM | IC50 ([2]; read-out: mPAD4 RFMS IC50): ≤ 1000 nM

CC1CCC(N)CN1C(=O)c1cnc2c(c1)nc(-c1cc3cccnc3n1CC1CC1)n2C (stereo not drawn) [Compound I-32]
IC50 [1, 3]: 1000 to 5000 nM | IC50 [1, 4]: 1000 to 10000 nM | IC50 [2, 5]: 1000 to 10000 nM | IC50 ([2]; read-out: mPAD4 RFMS IC50): 5000 to 10000 nM

CCn1c(-c2nc3cc(C(=O)N4C[C@H]5CC[C@@H]4[C@@H]5N)cnc3n2C)cc2ccc(OC)nc21 [Compound I-37]
IC50 [1, 3]: ≤ 1000 nM | IC50 [1, 4]: ≤ 1000 nM | IC50 [2, 5]: ≤ 1000 nM | IC50 ([2]; read-out: mPAD4 RFMS IC50): ≤ 1000 nM

CCn1c(-c2nc3cc(C(=O)N4C[C@H]5CC[C@@H]4[C@@H]5N)cnc3n2C)cc2cccnc21 [Compound I-39]
IC50 [1, 3]: 1000 to 5000 nM | IC50 [1, 4]: 1000 to 10000 nM | IC50 [2, 5]: 1000 to 10000 nM | IC50 ([2]; read-out: mPAD4 RFMS IC50): 1000 to 5000 nM

Cn1c(-c2cc3cccnc3n2CC2CC2)nc2cc(C(=O)N3C[C@H]4CC[C@@H]3[C@@H]4N)cnc21 [Compound I-41]
IC50 [1, 3]: ≤ 1000 nM | IC50 [1, 4]: ≤ 1000 nM | IC50 [2, 5]: ≤ 1000 nM | IC50 ([2]; read-out: mPAD4 RFMS IC50): ≤ 1000 nM

CCn1c(-c2nc3cc(C(=O)N4CCC[C@@H](N)C4)cnc3n2CCOC)cc2cccnc21 [Compound I-42]
IC50 [1, 3]: ≥ 10000 nM | IC50 [1, 4]: 10000 to 100000 nM | IC50 [2, 5]: 1000 to 10000 nM | IC50 ([2]; read-out: mPAD4 RFMS IC50): 1000 to 5000 nM

CCn1c(-c2nc3cc(C(=O)N4C[C@H]5CC[C@@H]4[C@@H]5N)cnc3n2CCOC)cc2cccnc21 [Compound I-43]
IC50 [1, 3]: 1000 to 5000 nM | IC50 [1, 4]: 1000 to 10000 nM | IC50 [2, 5]: 1000 to 10000 nM | IC50 ([2]; read-out: mPAD4 RFMS IC50): 1000 to 5000 nM

COc1ccc2cc(-c3nc4cc(C(=O)N5C[C@H]6CC[C@@H]5[C@@H]6N)cnc4n3C)n(CC3CC3)c2n1 [Compound I-44]
IC50 [1, 3]: ≤ 1000 nM | IC50 [1, 4]: ≤ 1000 nM | IC50 [2, 5]: ≤ 1000 nM | IC50 ([2]; read-out: mPAD4 RFMS IC50): ≤ 1000 nM

COCCn1c(-c2cc3cccnc3n2CC2CC2)nc2cc(C(=O)N3C[C@H]4CC[C@@H]3[C@@H]4N)cnc21 [Compound I-45]
IC50 [1, 3]: ≤ 1000 nM | IC50 [1, 4]: ≤ 1000 nM | IC50 [2, 5]: 1000 to 10000 nM | IC50 ([2]; read-out: mPAD4 RFMS IC50): 1000 to 5000 nM

COCCn1c(-c2cc3cccnc3n2CC2CC2)nc2cc(C(=O)N3CCC[C@@H](N)C3)cnc21 [Compound I-46]
IC50 [1, 3]: 1000 to 5000 nM | IC50 [1, 4]: 1000 to 10000 nM | IC50 [2, 5]: 1000 to 10000 nM | IC50 ([2]; read-out: mPAD4 RFMS IC50): 1000 to 5000 nM

COCCn1c(-c2cc3ccc(OC)nc3n2CC2CC2)nc2cc(C(=O)N3C[C@H]4CC[C@@H]3[C@@H]4N)cnc21 [Compound I-47]
IC50 [1, 3]: ≤ 1000 nM | IC50 [1, 4]: ≤ 1000 nM | IC50 [2, 5]: ≤ 1000 nM | IC50 ([2]; read-out: mPAD4 RFMS IC50): ≤ 1000 nM

CCn1c(-c2nc3cc(C(=O)N4C[C@H]5CC[C@@H]4[C@@H]5N)cnc3n2CCOC)cc2ccc(OC)nc21 [Compound I-48]
IC50 [1, 3]: ≤ 1000 nM | IC50 [1, 4]: ≤ 1000 nM | IC50 [2, 5]: 1000 to 10000 nM | IC50 ([2]; read-out: mPAD4 RFMS IC50): 1000 to 5000 nM

CCn1c(-c2nc3cc(C(=O)N4CCC[C@@H](N)C4)cnc3n2CCOC)cc2ccc(OC)nc21 [Compound I-49]
IC50 [1, 3]: 5000 to 10000 nM | IC50 [1, 4]: 1000 to 10000 nM | IC50 [2, 5]: 1000 to 10000 nM | IC50 ([2]; read-out: mPAD4 RFMS IC50): 1000 to 5000 nM

CO[C@]1(C)C[C@H](Cn2c(-c3cc4cccnc4n3CC3CC3)nc3cc(C(=O)N4C[C@H]5CC[C@@H]4[C@@H]5N)cnc32)C1 [Compound I-50]
IC50 [1, 3]: ≤ 1000 nM | IC50 [1, 4]: ≤ 1000 nM | IC50 [2, 5]: ≤ 1000 nM | IC50 ([2]; read-out: mPAD4 RFMS IC50): ≤ 1000 nM

CCn1c(-c2nc3cc(C(=O)N4C[C@H]5CC[C@@H]4[C@@H]5N)cnc3n2C[C@H]2C[C@@](C)(OC)C2)cc2ccc(OC)nc21 [Compound I-51]
IC50 [1, 3]: ≤ 1000 nM | IC50 [1, 4]: ≤ 1000 nM | IC50 [2, 5]: ≤ 1000 nM | IC50 ([2]; read-out: mPAD4 RFMS IC50): ≤ 1000 nM

Cn1c(-c2cc3ccc(C(F)(F)F)nc3n2CC2CC2)nc2cc(C(=O)N3C[C@H]4CC[C@@H]3[C@@H]4N)cnc21 [Compound I-52]
IC50 [1, 3]: ≤ 1000 nM | IC50 [1, 4]: ≤ 1000 nM | IC50 [2, 5]: ≤ 1000 nM | IC50 ([2]; read-out: mPAD4 RFMS IC50): ≤ 1000 nM

COc1ccc2cc(-c3nc4cc(C(=O)N5C[C@H]6CC[C@@H]5[C@@H]6N)cnc4n3C[C@H]3C[C@@](C)(OC)C3)n(CC3CC3)c2n1 [Compound I-53]
IC50 [1, 3]: ≤ 1000 nM | IC50 [1, 4]: ≤ 1000 nM | IC50 [2, 5]: ≤ 1000 nM | IC50 ([2]; read-out: mPAD4 RFMS IC50): ≤ 1000 nM

N[C@@H]1[C@@H]2CC[C@H]1N(C(=O)c1cnc3c(c1)nc(-c1cc4cccnc4n1CC1CC1)n3CC(F)F)C2 [Compound I-54]
IC50 [1, 3]: ≤ 1000 nM | IC50 [1, 4]: ≤ 1000 nM | IC50 [2, 5]: ≤ 1000 nM | IC50 ([2]; read-out: mPAD4 RFMS IC50): ≤ 1000 nM
